Assay results reported in patent US11648239B2, “Azophenols as ERG oncogene inhibitors” (The Henry M. Jackson Foundation for the Advancement of …, priority 2015, dated 2023).

Key:
ERG protein [1] = molecular target: T1, ERG protein (Homo sapiens, UniProt P11308); assay: Inhibition of ERG protein in VCaP cells (Western blot); type: cell-based; settings: VCaP, metastatic prostate cancer, TMPRSS2-ERG fusion; N/D = assay performed, inhibition not detected at the tested levels
T1 construct: host or cells: VCaP
T1 sequence (P11308 33-479 limits assumed): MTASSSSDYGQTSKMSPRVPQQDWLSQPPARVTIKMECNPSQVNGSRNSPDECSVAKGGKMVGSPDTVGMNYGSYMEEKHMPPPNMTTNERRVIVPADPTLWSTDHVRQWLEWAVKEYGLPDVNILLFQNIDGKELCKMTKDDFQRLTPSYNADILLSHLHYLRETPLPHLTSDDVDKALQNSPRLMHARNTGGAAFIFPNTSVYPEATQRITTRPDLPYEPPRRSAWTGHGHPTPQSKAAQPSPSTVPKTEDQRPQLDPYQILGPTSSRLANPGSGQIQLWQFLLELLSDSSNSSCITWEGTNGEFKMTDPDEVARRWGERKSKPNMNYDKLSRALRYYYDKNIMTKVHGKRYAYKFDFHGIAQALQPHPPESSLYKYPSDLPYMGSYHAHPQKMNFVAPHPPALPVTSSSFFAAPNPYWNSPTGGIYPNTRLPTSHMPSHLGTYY
Experimental: The TMPRSS2-ERG fusion positive prostate cancer cell line, VCaP (ATCC), was used to identify the test compound inhibitors of ERG expression. Cells were grown in medium using conditions prescribed by the vendor. VCaP cells in logarithmic growth were seeded in a tissue culture dish at a cell density of 2×10^6 cells per plate. Following 48 hours incubation at 37° C., cells were exposed for a period of 48 hours with 0, 0.05, 0.25 and 0.5 μM concentrations of each test azophenol compound. The inhibition of ERG expression was evaluated by an In-cell Western blot assay (LI-COR Biosciences, Lincoln, Nebr.) using the ERG specific CPDR ERG-MAb as further described below.
Inhibition of ERG protein expression by the test compounds were determined by Western blot analysis. The ERG specific monoclonal antibody CPDR ERG-MAb was used as the primary antibody. In brief, Western blot was performed by running a fixed amount of total protein extracted from cell lysates of the treated cells using (4-12% Bis-Tris) gel by electrophoresis, followed by transfer to membrane and incubation with primary antibody and continued with HRP-conjugated secondary antibody. Cultured cells were treated at specific dosages with each of the tested ERG inhibitors. Following incubation of the treated cells for an indicated time period, cells were lysed using Mammalian Protein Extraction Reagent (M-PER; Pierce, Rockford, Ill.) containing a protease inhibitor cocktail and phosphatase inhibitor cocktails I & III (Sigma, St Louis, Mo.). Cell lysates containing 50 μg of total protein were electrophoresed through 4-12% Bis-Tris Gel (Invitrogen, Carlsbad, Calif.) and the cellular proteins were transferred to PVDF membrane (Invitrogen, Carlsbad, Calif.). Membranes were incubated at 4° C. for 12 hours with primary antibodies for AR, PSA, GAPDH, α-Tubulin, apoptosis markers and cell cycle regulators. Following exposure to primary antibodies, the membranes were washed with buffer (3×, 5 minutes each at room temperature) followed by incubation with relevant secondary antibodies for 1 hour at 24° C. Finally, the membranes were washed with buffer and developed using the ECL Western blot detection reagent (GE Health Care, Buckinghamshire, UK). The ERG protein expression of the test azophenol compounds were normalized with GAPDH.
In brief, ERG positive VCaP cells in loganthmic growth phase were plated in 10 cm tissue culture dish at a cell density of 2×10^6 cells per dish. The plated cells were treated with 0, 0.2, 0.4, 0.6, 0.8 and 1 μM concentrations of each azophenol compound for a period of 48 hours. Cells from each dish were then processed for Western blot analysis and alterations in the expression of ERG protein were monitored. Both ERG and GAPDH protein band were quantified from each concentration using Image J (NIH) and ERG band density was normalized with corresponding GAPDH protein control. Relative density of ERG in each concentration was calculated and with Graphpad Prism 6 software, the IC50 of each compound was calculated.

VCaP cells = assay: VCaP cell growth inhibition; type: cell-based; settings: for IC50: VCaP, metastatic prostate cancer, TMPRSS2-ERG fusion, N/D = assay performed, inhibition not detected at the tested levels
Experimental: Approximately 48 hours following plating of cells, the appropriate test compound is added to each well of the tissue culture dish at a predetermined concentration. The medium was replenished every 24 hours with fresh growth medium containing the same concentration of the same test compound for indicated period of the cell growth inhibition assay. Percent cell growth inhibition was calculated using a hemocytometer for estimating cell density in each of the test wells of the tissue culture dish and trypan blue dye exclusion microscopy and photography to estimate the fraction of viable cells in each test well.
To investigate whether the azophenol compounds selectively arrested the growth of ERG positive cancer cells (VCaP), VCaP cells were cultured to achieve cells in logarithmic growth and these cells were then plated in 6 well tissue culture dishes in duplicates at a cell density of 0.2×10^6 cells per well. The plated cells were exposed to 0, 0.2, 0.4, 0.6, 0.8 and 1 μM concentrations of each compound for a period of 8 days. At the end of time period, cells were recovered from the test plate, washed, trypsinized and the cell density of viable cells were determined with trypan blue dye staining method and automated cell counter Bio-Rad TC10. The IC50 of cell growth inhibition of each compound was determined by trypsinizing the cells at the end of the experiment and counting the cells by using the automated cell counter (Bio-Rad TC10 automated cell counter). The average cell numbers of each concentration were used to calculate the IC50 of each compound with the GraphPad Prism 6 software.

ERG protein [2] = molecular target: T2, ERG protein (Homo sapiens, UniProt P11308); settings: PCT US2015/020172; cited from earlier work
T2 sequence (P11308 1-479): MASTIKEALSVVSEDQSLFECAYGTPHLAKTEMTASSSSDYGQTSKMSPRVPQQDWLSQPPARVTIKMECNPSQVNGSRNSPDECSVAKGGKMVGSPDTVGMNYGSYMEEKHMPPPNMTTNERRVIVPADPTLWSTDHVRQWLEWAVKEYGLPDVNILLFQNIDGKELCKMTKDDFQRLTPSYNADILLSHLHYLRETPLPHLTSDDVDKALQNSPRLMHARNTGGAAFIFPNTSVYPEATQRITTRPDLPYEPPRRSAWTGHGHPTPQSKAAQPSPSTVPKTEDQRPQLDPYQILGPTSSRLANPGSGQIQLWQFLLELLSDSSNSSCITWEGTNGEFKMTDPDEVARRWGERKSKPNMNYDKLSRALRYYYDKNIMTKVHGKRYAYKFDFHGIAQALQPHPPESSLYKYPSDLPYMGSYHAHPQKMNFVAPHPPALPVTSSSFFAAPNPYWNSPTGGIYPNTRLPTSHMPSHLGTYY

[3] = tested on: normal primary endothelial cells; settings: PCT US2015/020172; cited from earlier work
[4] = 0.2, 0.4, 0.6, 0.8 and 1 μM, FIG. 19-22, 24

Row | IC50 (ERG protein [1]) | IC50 (VCaP cells) | Compound | inhibition of VCaP cell growth (VCaP cells; [4]) | inhibition of VCaP cell growth (VCaP cells; 0.3, 0.6, 1.0, 3.0 and 10.0 μM, FIG. 25-30) | inhibition of VCaP cell growth (VCaP cells; 0.02, 0.05, 0.10, 0.20 and 0.40 μM, FIG. 23) | inhibition of ERG protein in ERG positive cancer cell lines (ERG protein [2]) | effect on normal primary endothelial cells that endogenously express ERG [3]
1 | 0.542 µM | 0.557 µM | Oc1ccc(N=Nc2ccccn2)c(O)c1 [Compound 5] | inhibition | inhibition |  |  | 
2 | 0.273 µM | 0.0739 µM | CN(C)c1ccc(N=Nc2ccccn2)c(O)c1 [Compound 6] | inhibition |  | inhibition |  | 
3 | 0.559 µM | 0.626 µM | CN(C)c1ccc(N=Nc2ccc(Br)cn2)c(O)c1 [Compound 7] | inhibition |  |  |  | 
4 |  |  | Oc1ccc2ccccc2c1N=Nc1nccs1 [ERGi-USU] |  |  |  | inhibit the ERG protein | minimal effect
